Entries after “also recorded” stand apart in the source; their conditions may differ.
Tests used:
H292 clone 15 cells = settings: 48 hours compound, Alamar Blue 2 hours; Average of 3 experiments
[1] = system: MUC5AC production by H292 clone 15 cells overexpressing hCLCA1; assay: ELLA of MUC5AC in conditioned media of H292 clone 15 cells; assay type: cell-based, human; settings: Homo sapiens, NCI-H292, 48 hours, Average of 3 experiments
Description: Conditioned media were collected and MUC5AC (the major secretory mucin in lungs) content was determined by ELLA measurement as described below. 96 well microtiter plates were coated with a mouse monoclonal antibody against human MUC5AC (1-13M1, NeoMarkers), then incubated with test conditioned media. Bound MUC5AC was detected by horseradish peroxidase-conjugated soybean lectin which has a high affinity towards highly-glycosylated proteins such as MUC5AC. Conversion of peroxidase substrate TMB (Tetramethylbenzidine Base) was quantified by reading at 450 nm. O.D. (optical density) readings were plotted against concentrations of compounds.

activated Caco2 cells = settings: Caco-2
[2] = system: MUC5A/C secretion in hCLCA1 expressing H292 cells; assay: MUC5A/C secretion in hCLCA1 expressing H292 cells (ELLA); assay type: cell-based, human; set-up: key to ELLA: + = inhibition; − = no inhibition; settings: Table 2, mucin production
[3] = system: NCI-H292/hICACC-1 (AAF 15) cells; assay: AB/PAS staining of mucous glycoconjugates in NCI-H292 cells over-expressing hICACC-1; assay type: cell-based, human; settings: 3 days
Description: NCI-H292 cells, a human pulmonary mucoepidermoid carcinoma cell line, were purchased from the American Type Culture Collection (Manassas Va.) and cultured in RPMI1640 medium supplemented with 10% FBS and 1% penicillin/streptomycin (Gibco/BRL). The cells were grown in a humidified, air-containing incubator, supplemented with 5% CO2 at 37° C. Stable NCI-H292 cell lines over-expressing hICACC-1 were established by transfection of pcDNA3-hICACC-1 using a Fujin Transfection kit according to the manufacture's instruction (Boehringer-Mannheim). A control cell line was produced, NCI-H292/ctl, by the transfection of pcDNA3 (ctl) into the NCI-H292 cell line using the same procedure. Expression of the hICACC-1 gene was confirmed for the pcDNA3-hICACC-1 transfectent by Northern analysis.
For the determination of mucous glycoconjugate production, NCI-H292/ctl and NCI-H292/hICACC-1 (AAF 15) cells were cultured in 24-well plates for 3 days. Cells were then fixed with Formalin and mucous glycoconjugates were visualized by AB/PAS staining (Sigma). […] For chloride channel blockage studies, cells were cultured in the presence of niflumic acid (NFA) (Sigma) at 100 μM concentration, mefanamic acid (MFA) at 125 or 250 μM or talniflumate at 12.5, 25 or 50 μM, or media alone.

[4] = system: activated Caco2 cell line; assay: Viability of activated Caco2 cells treated with NFA; assay type: cell-based; settings: even higher concentrations of NFA
activated LHL4 cells = assay: Eotaxin production by activated LHL4 cells (ELISA); assay type: cell-based; settings: increasing concentrations
Description: Activated LHL4 cells that express and secrete eotaxin have been produced and used to test for inhibitors of eotaxin production. These cells were assayed in vitro for eotaxin by an ELISA technique well known in the art (R&D Systems).

IL9 transgenic mice = assay: Mucin production in lungs of IL9 transgenic mice, intra-tracheal treatment; assay type: in vivo; settings: NFA (100 μg) IT once daily for three days
Description: Certified virus-free male and female IL9 transgenic mice (IL9TG5-FVB/N) 5-6 weeks of age were bred in our laboratories. Male and female FVB/N mice 5-6 weeks of age were purchased from Jackson Laboratories (Bar Harbor Me.). Animals were housed in high-efficiency, particulate filtered air and allowed free access to food and water for 3 to 7 days prior to experimental manipulation. The animal facilities were maintained at 22° C. and the light:dark cycle was automatically controlled (10:14 hour light:dark).
Animals were phenotyped, naïve, or 24 hrs after receiving intra-tracheal (IT) shame (vehicle) treatment, or drugs in the same vehicle as was used in identically treated controls. Mice were treated IT once daily for three days. NFA (100 μg) or antibody to IL-9 were administered in PBS IT. […] The up-regulation of mucus production in the IL9 transgenic is specifically associated with increased steady-state mRNA levels of MUC2 and MUC5AC as shown by RT-PCR (FIG. 9).

[5] = system: mice sensitized by nasal aspiration of Aspergillus fumigatus antigen; assay type: in vivo
[6] = system: human chloride channel hICACC-1; assay: Patch clamp chloride current, NCI-H292 cell expressing hICACC-1; assay type: cell-based; settings: 5 micromolar talniflumate; 2 μM ionomycin and 2 mM calcium
Description: An NCI-H292 cell transfected with a plasmid expressing the human chloride channel hICACC-1 was patch clamped and chloride current (I) was measured over a range of voltages (V). Substantial chloride current was invoked by the addition of 2 μM ionomycin and 2 mM calcium (circles) compared to baseline (squares), indicating activation of hICACC-1.

[7] = system: CF mice (CF knock-out mice and CF ΔF508 mice); settings: po, 100 mg/kg
[8] = system: B6D2F1 mice sensitized with Aspergillus fumigatus; assay: Murine asthma model, Aspergillus fumigatus sensitization, Talniflumate containing mouse chow; assay type: in vivo; settings: oral
MUC2 transcription = assay: MUC2 promoter luciferase reporter, lipoteichoic acid induction; assay type: cell-based; settings: LTA from S. aureus; FIG. 22
Description: MUC2 transcription was monitored as described in Li et al. (1998) Proc. Natl. Acad. Sci., USA, Vol. 95, pp. 5718-5723. Briefly, an epithelial cell line was transfected with a reporter construct containing the promoter region from the MUC2 gene cloned upstream of a luciferase reporter gene. Transfected cells were treated with serum free media (SFM) alone or, as indicated, containing lipoteichoic acid from S. aureus bacteria (LTA), adenosine (aden), or talniflumate (MSI). Cells were then lysed and luciferase enzyme activity in the lysates was measured (RLU). Talniflumate modulated the lipoteichoic acid induction of MUC2 (see FIG. 22). This is also an appropriate model for CF.

[9] = molecular target: T1, murine chloride channel, mICACC-1 (Mus musculus, UniProt Q9D7Z6); assay: Patch clamp chloride current, HEK293 cell expressing mICACC-1; assay type: cell-based; settings: for Chloride Current (nA/pF): + ionomycin + Ca
T1 construct: expressed in transfected cells; host or cells: HEK293
T1 sequence (Q9D7Z6 22-913): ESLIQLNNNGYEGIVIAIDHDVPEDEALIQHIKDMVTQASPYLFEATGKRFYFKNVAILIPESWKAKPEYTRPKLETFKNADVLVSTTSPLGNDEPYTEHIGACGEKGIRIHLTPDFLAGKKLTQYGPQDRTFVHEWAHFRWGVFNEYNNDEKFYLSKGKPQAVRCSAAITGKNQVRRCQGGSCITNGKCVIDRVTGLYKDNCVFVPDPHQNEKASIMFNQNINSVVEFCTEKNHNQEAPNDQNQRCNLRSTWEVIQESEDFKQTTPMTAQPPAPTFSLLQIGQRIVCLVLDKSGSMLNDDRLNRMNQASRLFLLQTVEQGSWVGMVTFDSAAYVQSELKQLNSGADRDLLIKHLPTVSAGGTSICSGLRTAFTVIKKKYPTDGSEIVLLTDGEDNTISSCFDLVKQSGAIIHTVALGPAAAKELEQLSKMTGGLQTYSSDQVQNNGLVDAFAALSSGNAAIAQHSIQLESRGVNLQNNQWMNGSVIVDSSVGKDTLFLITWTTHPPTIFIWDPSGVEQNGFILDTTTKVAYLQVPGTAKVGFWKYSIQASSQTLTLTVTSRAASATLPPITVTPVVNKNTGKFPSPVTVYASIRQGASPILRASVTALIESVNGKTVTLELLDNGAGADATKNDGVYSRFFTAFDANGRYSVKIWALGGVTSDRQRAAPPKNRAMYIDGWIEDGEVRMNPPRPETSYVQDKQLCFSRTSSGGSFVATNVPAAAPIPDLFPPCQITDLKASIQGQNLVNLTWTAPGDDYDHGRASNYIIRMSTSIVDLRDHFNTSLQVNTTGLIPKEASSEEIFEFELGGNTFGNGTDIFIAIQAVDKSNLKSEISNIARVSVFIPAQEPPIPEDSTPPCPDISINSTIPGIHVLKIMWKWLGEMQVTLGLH
Description: A HEK293 cell transfected with a plasmid expressing a murine chloride channel, mICACC-1, was patch clamped and chloride current was measured over a range of voltages (V, left column) and the results are shown in Table 3 below. Each row lists currents invoked at a particular positive voltage in the absence (−) or presence (+) of ionomycin and calcium, and in the presence of an indicated concentration of diclofenac (μM). Substantial current was invoked by the addition of 2 μM ionomycin and 2 mM calcium-compare the first two columns-indicating activation of mICACC-1 by the ionomycin/calcium treatment. For example, at 100 mV of positive voltage, the chloride current was increased from 39 nA/pF to 105 nA/pF.

For O=C1OC(CC(=O)c2cccnc2Oc2cccc(Br)c2)c2ccccc21 (stereo not shown) [Compound 14], the “Est. LD50 (μM)(alamar Blue)*” value (H292 clone 15 cells) was 16 µM.

For O=C1OC(CC(=O)c2cccnc2Sc2ccccc2Cl)c2ccccc21 (stereo not shown) [Compound 15], the IC50 [1] was 2.5 µM and the “Est. LD50 (μM)(alamar Blue)*” value (H292 clone 15 cells) was 15 µM.

For O=C(O)c1ccccc1Nc1cccc(C(F)(F)F)c1 [Flufenamate], the “Mucin production by activated Caco2 cells” value (activated Caco2 cells) was “inhibited”.

With COC(=O)c1cccnc1Nc1cccc(C(F)(F)F)c1 [MSI 2213, Niflumic acid methyl ester] the ELLA [2] was “−”.

With Cc1ccc(Cl)c(Nc2ccccc2C(=O)O)c1Cl [Meclofenamate] the “Mucin production by activated Caco2 cells” value (activated Caco2 cells) was “partially”.

With Cc1cccc(Nc2ccccc2C(=O)O)c1C [Mefenamate] the “Mucin production by activated Caco2 cells” value (activated Caco2 cells) was “partially” and the “PAS positive staining muco-glycoconjugates compared with untreated cells” value ([3]; MFA at 125 or 250 μM) was “significantly fewer positive staining muco-glycoconjugates”.

For O=C(O)c1cccnc1Nc1cccc(C(F)(F)F)c1 [NFA, niflumic acid], the viability [4] was “not affected; also recorded: did not effect their viability”, the eotaxin production (activated LHL4 cells) was “Significant inhibition; also recorded: blocks epithelial activation including chemokine production” and the “mucin production in the IL9 transgenic lungs” value (IL9 transgenic mice) was “decreased mucin production”. For the same compound, the “PAS positive staining muco-glycoconjugates compared with untreated cells” value ([3]; NFA at 100 μM) was “significantly fewer positive staining muco-glycoconjugates”, the “serum IgE levels” value ([5]; 100 μg of NFA intra-tracheal, days 0-21, vs PBS) was “no effect” and the BAL lung eosinophilia ([5]; mouse, in vivo) was “suppress; also recorded: reduces antigen-induced lung eosinophilia in vivo”. The antigen-induced airway hyperresponsiveness ([5]; mouse, in vivo) was “suppress; also recorded: suppresses antigen-induced airway hyperresponsiveness”.

In the case of COc1ccc2cc([C@H](C)C(=O)O)ccc2c1 [Naproxen], the “Mucin production by activated Caco2 cells” value (activated Caco2 cells) is reported as “ineffective”.

In the case of CC1=C(CC(=O)O)c2cc(F)ccc2/C1=C\c1ccc([S+](C)[O-])cc1 (stereo not shown) [Sulindac], the “Mucin production by activated Caco2 cells” value (activated Caco2 cells) is reported as “ineffective”.

For O=C1OC(OC(=O)c2cccnc2Nc2cccc(C(F)(F)F)c2)c2ccccc21 (stereo not shown) [Talniflumate, talniflumate], the “chloride current at positive voltage” value [6] was “reduction in chloride current”, the “Est. LD50 (μM)(alamar Blue)*” value (H292 clone 15 cells) was 108 µM and the body weight gained [7] was 8-12%. The “lung eosinophilia, number of eosinophilic cells by bronchoalveolar lavage” value ([8]; Talniflumate coated chow, sensitized mice vs standard chow) was “reduced the number of eosinophilic cells; also recorded: inhibition of lung eosinophilia”, the “mucin staining (PAS) in lung” value ([8]; Talniflumate containing chow ad lib, Asp-sens mice vs regular chow) was “reduced mucin staining; also recorded: inhibition of mucin over production” and the “PAS positive staining muco-glycoconjugates compared with untreated cells” value ([3]; talniflumate at 12.5, 25 or 50 μM) was “significantly fewer positive staining muco-glycoconjugates”. For the same compound, the “lipoteichoic acid induction of MUC2 (luciferase, RLU)” value (MUC2 transcription) was “modulated”.

For O=C(O)Cc1ccccc1Nc1c(Cl)cccc1Cl [diclofenac], the “Chloride Current (nA/pF)” value ([9]; 0 mV, diclofenac 5 μM) was 20 nA/pF, the “Chloride Current (nA/pF)” value ([9]; 0 mV, diclofenac 20 μM) was 20 nA/pF and the “Chloride Current (nA/pF)” value ([9]; 0 mV, diclofenac 50 μM) was 19 nA/pF. The “Chloride Current (nA/pF)” value ([9]; 20 mV, diclofenac 5 μM) was 36 nA/pF, the “Chloride Current (nA/pF)” value ([9]; 20 mV, diclofenac 20 μM) was 34 nA/pF and the “Chloride Current (nA/pF)” value ([9]; 20 mV, diclofenac 50 μM) was 33 nA/pF. For the same compound, the “Chloride Current (nA/pF)” value ([9]; 40 mV, diclofenac 5 μM) was 53 nA/pF, the “Chloride Current (nA/pF)” value ([9]; 40 mV, diclofenac 20 μM) was 51 nA/pF and the “Chloride Current (nA/pF)” value ([9]; 40 mV, diclofenac 50 μM) was 48 nA/pF. The “Chloride Current (nA/pF)” value ([9]; 60 mV, diclofenac 5 μM) was 72 nA/pF, the “Chloride Current (nA/pF)” value ([9]; 60 mV, diclofenac 20 μM) was 69 nA/pF and the “Chloride Current (nA/pF)” value ([9]; 60 mV, diclofenac 50 μM) was 66 nA/pF. For the same compound, the “Chloride Current (nA/pF)” value ([9]; 80 mV, diclofenac 5 μM) was 92 nA/pF, the “Chloride Current (nA/pF)” value ([9]; 80 mV, diclofenac 20 μM) was 88 nA/pF and the “Chloride Current (nA/pF)” value ([9]; 80 mV, diclofenac 50 μM) was 85 nA/pF. For the same compound, the “Chloride Current (nA/pF)” value ([9]; 100 mV, diclofenac 5 μM) was 115 nA/pF, the “Chloride Current (nA/pF)” value ([9]; 100 mV, diclofenac 20 μM) was 109 nA/pF and the “Chloride Current (nA/pF)” value ([9]; 100 mV, diclofenac 50 μM) was 106 nA/pF. For the same compound, the “inhibition of channel activity” value ([9]; diclofenac 5 μM to 50 μM, 2 μM ionomycin and 2 mM calcium) was “No inhibition”.
